From patent US20170151219A1, “ANTIPERSPIRANT AGENT” (OSAKA UNIVERSITY, priority 2014, published 2017)

What was measured:
human = test: Observation of skin symptom after oral administration of mTOR inhibitor; assay type: in vivo; conditions: orally 10 mg per day, FIG. 3
Method: An influence on a skin exerted by a mTOR inhibitor was observed.
Specifically, a mTOR inhibitor (everolimus (Afinitor (Registered Trademark)) was orally administered to a human by 10 mg per day, and a symptom appeared on the skin was observed.
Specifically, (a) of FIG. 3 is a photograph showing a state of the skin before the mTOR inhibitor is administered, and (b) of FIG. 3 is a photograph showing a state of the skin after the mTOR inhibitor is administered.

[1] = system: patient of renal angiomyolipoma in consequence of tuberous sclerosis; test: Amount of sweating measured with local perspiration meter during and after oral mTOR inhibitor; assay type: in vivo, human; conditions: FIG. 4
Method: To a patient of renal angiomyolipoma in consequence of tuberous sclerosis, the mTOR inhibitor (everolimus (Afinitor (Registered Trademark))) was orally administered by 10 mg per day for approximately four months, and then the oral administration of the mTOR inhibitor was withdrawn.
During the period, after the oral administration of the mTOR inhibitor was started, an amount of sweating on a normal skin of the patient was measured with time and an amount of sweating on a skin of the patient on which a symptom of vitiligo appeared was measured with time.
The amount of sweating was measured with use of a local perspiration meter (quantitative axon reflex sweat amount measuring device) manufactured by Skinos Giken, and a specific measuring method was in conformity to a protocol attached to the device.

[2] = orally 10 mg per day for approximately four months

**Q.** Which results are given for CO[C@H]1C[C@@H]2CC[C@@H](C)[C@@](O)(O2)C(=O)C(=O)N2CCCC[C@H]2C(=O)O[C@H]([C@H](C)C[C@@H]2CC[C@@H](OCCO)[C@H](OC)C2)CC(=O)[C@H](C)/C=C(\C)[C@@H](O)[C@@H](OC)C(=O)[C@H](C)C[C@H](C)/C=C/C=C/C=C/1C [everolimus]?
**A.** symptom appeared on the skin (human): dry skin; amounts of sweating after withdrawal of administration ([1]; normal skin and vitiligo skin, after withdrawal of oral administration): restored; amount of sweating on the normal skin [1, 2]: reduced; amount of sweating on the skin showing the symptom of vitiligo [1, 2]: reduced
